These results are taken from patent publication US8945540B2, “Compositions for enhancing the antibacterial activity of myeloperoxidase and methods of use thereof” (Exoxemis, Inc., priority 2008, dated 2015).

For one assay, the system named is E. coli. Put plainly: MIC, modified CLSI broth microdilution. The format is cell-based, Escherichia coli. An excerpt: All clinical isolates were obtained from the culture collection of Eurofins Medinet Anti-Infective Services (Herndon, Va.), and represent diverse geographical regions. They were originally derived from clinical specimens and identified using standard microbiological methods (see Table 33 below for details). Escherichia coli ATCC 25922, Staphylococcus aureus ATCC 25923, S. aureus ATCC 29213, Pseudomonas aeruginosa ATCC 27853, and Enterococcus faecalis ATCC 29212 were used as quality control strains for the Enhanced MPO Solution and comparator agents to validate the modified Clinical and Laboratory Standards Institute (CLSI, formally NCCLS) broth microdilution method.
Modifications were made to the standard broth microdilution method to accommodate the rapid in vitro activity of the Enhanced MPO Solution as described below. Each antimicrobial agent and Concentrate solution was diluted in double strength cation-adjusted Mueller-Hinton Broth (CAMHB) and dispensed in mircrodilution trays. All β-hemolytic streptococci were tested in double strength CAMHB supplemented with 5% lysed horse blood. Isolates were prepared by suspending several colonies (four to six) from an overnight culture on Trypticase Soy Agar (TSA) with 5% sheep blood into sterile saline and the density adjusted to a 0.5 McFarland standard (˜10^8 CFU/ml). Standardized bacterial suspensions were further diluted in double strength Diluent solution so that approximately 5×10^5 CFU/ml was mixed with serial drug dilutions. The addition of Diluent solution to the Concentrate solution activates the enzyme system, which in turn exerts its rapid mode of action. The microdilution trays were incubated in ambient air at 35° C. for 18 to 24 h.
MIC ranges were established for the Enhanced MPO Solution by testing over 20 replicates of one lot of the Enhanced MPO Solution against S. aureus ATCC 29213 and E. coli ATCC 25922. Quality control parameters were then determined for the Enhanced MPO Solution by testing three lots of the Concentrate solution used for preparation of the final Enhanced MPO Solution formulation. Testing was performed in duplicate against S. aureus ATCC 29213 and E. coli ATCC 25922. The effects of modifying the standard broth microdilution test were also assessed with antibiotics with known quality control limits to validate the CLSI broth microdilution method.

A further assay deals with P. aeruginosa. Put plainly: MIC, modified CLSI broth microdilution. It is filed as cell-based. The settings on record: Pseudomonas aeruginosa, 53 clinical isolates.
The test system of the next assay is Acinetobacter species. Put plainly: MIC, modified CLSI broth microdilution. The format is cell-based. The settings on record: Acintobacter spp., 29 clinical isolates.
The subject of the next assay is Klebsiella pneumoniae. Put plainly: MIC, modified CLSI broth microdilution. It is filed as cell-based. The settings on record: 31 clinical isolates.
The subject of a further assay is Enterobacter cloacae. Put plainly: MIC, modified CLSI broth microdilution. It is filed as cell-based. The conditions noted are these: 21 clinical isolates.
The test system of a further assay is Aeromonas hydrophilia. Put plainly: MIC, modified CLSI broth microdilution. The format is cell-based. The conditions noted are these: 5 clinical isolates, range for all strains tested.
The test system of another assay is Citrobacter freundii. The assay can be described thus: MIC, modified CLSI broth microdilution. The format is cell-based. The settings on record: 20 clinical isolates.
The next assay relates to Proteus mirabilis. The assay can be described thus: MIC, modified CLSI broth microdilution. The settings on record: 24 clinical isolates. The format is cell-based.
The next assay deals with Pasteurella multocida. Put plainly: MIC, modified CLSI broth microdilution. It is filed as cell-based. The conditions noted are these: 5 clinical isolates, range for all strains tested.
The next assay deals with Bacillus subtilis spores. The assay can be described thus: Myeloperoxidase system with beta alanine and L-alanine against spores in the presence of blood. It is filed as cell-based. The conditions noted are these: 2 hours, MPO 25 μg/mL (9.4 U/mL), GO 8.3 U/mL. The method, then:
The effect of a two-way combination of beta alanine and L-alanine, as potential enhancing agents, for MPO microbicidal action against Bacillus subtilis spores in the presence of blood, was determined following the procedure of Example 2. However, in this case each test contained a single low concentration of MPO (25 μg/mL or 9.4 U/mL) and glucose oxidase (8.3 U/mL). […] The effect of both L-alanine and beta alanine alone on the myeloperoxidase antimicrobial activity against Bacillus subtilis spores was tested for comparison.
The nature of the relationship between beta alanine and L-alanine was examined following the synergy determination method described above.

Another assay has as its system Pseudomonas aeruginosa. The assay can be described thus: Myeloperoxidase system with amino acids in the presence of blood (Example 9). The conditions noted are these: 60 minutes, MPO 25 μg/mL, GO 8.3 U/mL, L-valine/glycine 2.5 μmol/mL each, beta alanine 5 mM. The format is cell-based. The method, then: (§1) The effect of two way combinations of amino acids glycine and valine, and individually beta alanine, as potential enhancing agents for MPO microbicidal action against Pseudomonas aeruginosa, Staphylococcus aureus and Candida albicans, in the presence of blood, was determined following the procedure of Example 2. Each organism was tested against a single low concentration of MPO (25 μg/mL or 9.4 U/mL) and glucose oxidase (8.3 U/mL). The two amino acid activators were each added at a final concentration of 2.5 μmol/mL and the individual amino acid, beta alanine, was tested at a single concentration of 5 μmol/mL. The effect of no amino acid containing formulations on the myeloperoxidase antimicrobial activity against these organisms was tested for comparison.

The test system of a further assay is Candida albicans. Described as above. It is filed as cell-based. The conditions noted are these: MPO 25 μg/mL, GO 8.3 U/mL, L-valine/glycine 2.5 μmol/mL each, beta alanine 5 μmol/mL. The method, then:
as §1

Assay [1] relates to Staphylococcus aureus. Put plainly: Control: microbicidal activity of the amino acid or analogue alone (no glucose, MPO, glucose oxidase) in the presence of blood. The format is cell-based. The settings on record: amino acid alone 5 mM; MPO 0; GO 0; no glucose; blood; without replication. An excerpt:
As a control to determine the microbicidal activity of the amino acids alone, the foregoing procedure was followed without replication, except in the absence of glucose, MPO, and glucose oxidase.

Assay [2] relates to Staphylococcus aureus. The assay can be described thus: Microbicidal activity of the myeloperoxidase system (p-MPO, glucose oxidase, glucose) with amino acids in the presence of blood, CFU plate counts; synergy determination from these CFU. The settings on record: for Average Viability CFU/ml 50 min / Log Reduction 50 min: single amino acid 2.5 mM, MPO 4.7 U/ml, GO 4.2 U/ml. The format is cell-based. The procedure, abridged: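 Microbicidal activity of the MPO–glucose oxidase–glucose system against S. aureus with amino acids was assessed in 3% whole blood. Reactions of 1 mL were run at room temperature or 37° C and stopped with catalase. Surviving CFU were counted on trypticase soy agar. For each pair, Actual CFU was divided by Predicted CFU and multiplied by 100. This value was compared with variability-based thresholds to classify synergism, antagonism or additivity.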

The mark [3] stands for this setting: Escherichia coli, 52 clinical isolates.
The mark [4] stands for this setting: Table 4, amino acid 5 mM (none: 0 mM), MPO 38 U/ml, GO 33.3 U/ml, blood.
Setting [5] is: Table 14, in the presence of blood, 50 min.

Where only a bound is given, the exact number is not on record here.

Source text for Acinetobacter species: (§2) All clinical isolates were obtained from the culture collection of Eurofins Medinet Anti-Infective Services (Herndon, Va.), and represent diverse geographical regions. […] Escherichia coli ATCC 25922, Staphylococcus aureus ATCC 25923, S. aureus ATCC 29213, Pseudomonas aeruginosa ATCC 27853, and Enterococcus faecalis ATCC 29212 were used as quality control strains for the Enhanced MPO Solution and comparator agents to validate the modified Clinical and Laboratory Standards Institute (CLSI, formally NCCLS) broth microdilution method.
(§3) Modifications were made to the standard broth microdilution method to accommodate the rapid in vitro activity of the Enhanced MPO Solution as described below. Each antimicrobial agent and Concentrate solution was diluted in double strength cation-adjusted Mueller-Hinton Broth (CAMHB) and dispensed in mircrodilution trays. All β-hemolytic streptococci were tested in double strength CAMHB supplemented with 5% lysed horse blood. Isolates were prepared by suspending several colonies (four to six) from an overnight culture on Trypticase Soy Agar (TSA) with 5% sheep blood into sterile saline and the density adjusted to a 0.5 McFarland standard (˜10^8 CFU/ml). Standardized bacterial suspensions were further diluted in double strength Diluent solution so that approximately 5×10^5 CFU/ml was mixed with serial drug dilutions. […]
Procedure for Aeromonas hydrophilia: (§4) Modifications were made to the standard broth microdilution method to accommodate the rapid in vitro activity of the Enhanced MPO Solution as described below. Each antimicrobial agent and Concentrate solution was diluted in double strength cation-adjusted Mueller-Hinton Broth (CAMHB) and dispensed in mircrodilution trays. All β-hemolytic streptococci were tested in double strength CAMHB supplemented with 5% lysed horse blood. Isolates were prepared by suspending several colonies (four to six) from an overnight culture on Trypticase Soy Agar (TSA) with 5% sheep blood into sterile saline and the density adjusted to a 0.5 McFarland standard (˜10^8 CFU/ml). Standardized bacterial suspensions were further diluted in double strength Diluent solution so that approximately 5×10^5 CFU/ml was mixed with serial drug dilutions. […] The microdilution trays were incubated in ambient air at 35° C. for 18 to 24 h.
Source text for Citrobacter freundii: as §2, §3
Source text for Enterobacter cloacae: as §2, §3
Source text for Klebsiella pneumoniae: as §2, §3
Procedure for P. aeruginosa: as §4
Procedure for Pasteurella multocida: as §4
Source text for Proteus mirabilis: as §2, §3

Take gentamicin: in the assay on E. coli (E. coli ATCC 25922, inoculum prepared in Diluent solution), the “MIC by the modified method versus published quality control ranges” value is recorded as “within previously published quality control ranges”. For the same molecule, the “MIC 50%” value in the assay on E. coli (setting [3]) stood at 4 µg/mL; with P. aeruginosa, 4 µg/mL; in the assay with Acinetobacter species, 8 µg/mL; with Klebsiella pneumoniae it was 4 µg/mL; in the assay on Enterobacter cloacae, 2 µg/mL; with Citrobacter freundii, 2 µg/mL. Besides, the “MIC 50%” value against Proteus mirabilis was determined as 8 µg/mL. The “MIC 90%” value with E. coli (setting [3]) is >32 µg/mL; in the assay on P. aeruginosa, 16 µg/mL; in the assay with Acinetobacter species it was >32 µg/mL; in the assay on Klebsiella pneumoniae, >32 µg/mL; against Enterobacter cloacae it was 8 µg/mL; with Citrobacter freundii it was 4 µg/mL. The “MIC 90%” value against Proteus mirabilis worked out at 8 µg/mL. Also, the results for the “MIC Range” value in the assay with Aeromonas hydrophilia and in the assay on Pasteurella multocida were 1 to 4 µg/mL and 2 to 16 µg/mL, respectively.
As for `NCCC(=O)O` [Beta alanine], the CFU survivors in the assay on Bacillus subtilis spores is listed as 3100000 CFU. For the same molecule, in the assay with Pseudomonas aeruginosa, the “enhancing effect over the MPO system without amino acids” value was 4.6 logs. In the assay with Candida albicans, the “improvement in microbicidal activity over the MPO system without amino acids” value was 1.9 logs. The “Average Viability CFU/ml 60 min” value turned out to be 25500000 CFU/ml in the assay with Staphylococcus aureus [1] and 0 CFU/ml in the assay with Staphylococcus aureus [2] (setting [4]). Further, the “Log Reduction 60 min” value was determined as 0.0 in the assay on Staphylococcus aureus [1] and 7.4 in the assay on Staphylococcus aureus [2] (setting [4]). Further, the “Log 10 (CFU + 1) Survivors” value in the assay with Staphylococcus aureus [2] (MPO 25 μg/mL, AA 5 mM, 30 min) stood at 0.0; in the assay on Staphylococcus aureus [2] (MPO 25 μg/mL, AA 5 mM, 60 min) it was 0.0; in the assay on Staphylococcus aureus [2] (MPO 25 μg/mL, AA […], 30 min), 0.0; with Staphylococcus aureus [2] (MPO 25 μg/mL, AA […], 60 min), 0.0; in the assay with Staphylococcus aureus [2] (MPO 100 μg/mL, AA 5 mM, 30 min), 0.0; with Staphylococcus aureus [2] (MPO 100 μg/mL, AA 5 mM, 60 min), 0.0. The “Log 10 (CFU + 1) Survivors” value is 0.0 with Staphylococcus aureus [2] (MPO 100 μg/mL, AA 20 mM, 30 min) and 0.0 with Staphylococcus aureus [2] (MPO 100 μg/mL, AA 20 mM, 60 min). In addition, the “Average Viability CFU/ml 50 min” value was determined as 6000000 CFU/ml in the assay with Staphylococcus aureus [2] (setting [5]) and 505000 CFU/ml in the assay with Staphylococcus aureus [2] (blood). Moreover, the figures for the “Log Reduction 50 min” value in the assay with Staphylococcus aureus [2] (setting [5]) and in the assay on Staphylococcus aureus [2] (blood) were 0.7 and 1.7, respectively. In addition, the “increased performance over the MPO system without amino acids” value with Staphylococcus aureus [2] (within 30 minutes, MPO 25 μg/mL, GO 8.3 U/mL, blood, 5 μmol/mL) is on record as 6.8 logs. In the assay with Staphylococcus aureus [2] (within 60 minutes, lower concentrations of amino acid and MPO, blood), the “kill of S. aureus (in words)” value was “complete kill”.
